Measured values taken from US20250368638A1, “BICYCLIC INHIBITORS OF NICOTINAMIDE […], COMPOSITIONS AND USES THEREOF” (President and Fellows of Harvard College, priority 2021, published 2025).
Read-outs that look alike come from different tables or passages of the source.

Assays:
[1] = tested on: K562 (ATCC) cells; test: Cellular potency: 1-MNA levels in K562 cells after compound incubation; assay type: cell-based; conditions: Homo sapiens, 24 h incubation
Procedure: Cellular potency was measured in K562 (ATCC) cells via measuring (1-methyl nicotinamide) 1-MNA levels after compound incubation at varying concentrations overnight. Cells were plated at 1 million per well and were incubated for 24 h with compounds at indicated concentrations. Cells were collected by pipetting and extracted with 200 ul acetonitrile containing internal deuterated standard 10 ng/ml d4-1-MNA. Samples were analyzed on an Agilent 64-60 Triple Quad LC/MS with Agilent 1290 Infinity HPLC using a Restek Allure 5 um PPFP column 150 mm×2.1. The mobile phase A was 2.5 mM ammonium formate in water, and mobile phase B was methanol with 0.1% formic acid, delivered at 0.25 mL/min. The capillary voltage was set to 2400V and the nozzle at 300V. The drying gas temperature was 240° C., the drying gas flow rate was 4 L/min, and the nebulizer pressure was 40 psi. The mass spectrometer was run in multiple reaction monitoring mode. Mass transitions were m/z 137.1 à 94.1 for 1-MNA and m/z 141.1 à 98.1 for d4-MNA.

[2] = tested on: 1-MNA; test: Plasma 1-MNA in mice after dosing with 11 (PK/PD); assay type: in vivo, Female C57B16/N mice
Source text: (§1) Doses were freshly prepared on the day of dosing. Vehicle compositions of each dose are listed below. […] Adjust pH with 1 N hydrochloric acid to obtain a clear solution or (b) 0.2% Tween 80/20% PEG-300 in water. Adjust pH with 1 N hydrochloric acid to obtain a clear solution
(§2) Then the samples were vortexed for 30 s.

[3] = Mouse PK studies of 11 (plasma); assay type: in vivo, Female C57B16/N mice; conditions: for T1/2: formulation a (0.2% Tween 80, 10% PEG300); for MRT inf: read-out: MRTInf—obs
Source text: as §1, §2

[4] = tested on: Ion Channels, GPCR, Transporter, Kinases, Enzyme and Nuclear Hormone Receptor; test: Off-target safety panel screening; conditions: at 10 μM
Procedure: An off-target safety panel screening for 11 was conducted. The class of target teste included Ion Channels, GPCR, Transporter, Kinases, Enzyme and Nuclear Hormone Receptor.

[5] = Metabolic stability in pooled human liver microsomes
Procedure: A master solution was prepared according to the following table.
40 μL of 10 mM NADPH solution was added to each well. The final concentrations of NADPH was 1 mM. The mixture was pre-warmed at 37° C. for 5 minutes. The negative control samples were prepared by replacing NADPH solutions with 40 μL of ultra-pure H2O. The negative control was used to exclude the misleading factor that resulted from instability of chemical itself. Samples with NADPH were prepared in duplicate. Negative controls were prepared in singlet.
The reaction was started with the addition of 4 μL of 200 μM control compound or test compound solutions. […] Samples were centrifuged at 3, 220 g for 40 minutes. Aliquot of 90 μL of the supernatant was mixed with 90 μL of ultra-pure H2O and then used for LC-MS/MS analysis.
For metabolite standard samples: 1 μL of 400 μM working solution was added to 89 μL master solution following by adding 400 μL of cold acetonitrile with internal standard (IS) (100 nM alprazolam, 200 nM Imipramine, 200 nM labetalol and 2 μM ketoprofen). Then 10 μL of 10 mM NADPH solution or ultra-pure H2O was added to the mixture. Samples were centrifuged at 3,220 g for 40 minutes to precipitate protein. Aliquots of 90 μL supernatant diluted by 90 μL of water was used for LC-MS/MS analysis.

[6] = 10 mg/kg PO of 11, formulation a
[7] = female, C57B16/N, mouse, plasma, iv, 1 mg/kg, 1 mg/kg IV
[8] = female, C57B16/N, mouse, plasma, po, 10 mg/kg, 10 mg/kg PO, formulation a
[9] = female, C57B16/N, mouse, plasma, po, 50 mg/kg, 50 mg/kg PO, formulation a
[10] = female, C57B16/N, mouse, plasma, po, 50 mg/kg, 50 mg/kg PO, formulation b
[11] = female, C57B16/N, mouse, plasma, po, title: single 100 mg/kg dosage, 50 mg/kg^b, formulation b
[12] = female, C57B16/N, mouse, plasma, 1 mg/kg IV

Question: Which results are given for C[C@@H]1Cc2cc(C(N)=O)cnc2N1 [Compound 11, (2R)-2-methyl-2,3-dihydro-1H-pyrrolo[2,3-b]pyridine-5-carboxamide]?
Answer: IC50 [1]: 38 nM; AUClast of 1-MNA ([2]; 1 mg/kg IV of 11): 1289 ng·h/mL; AUClast of 1-MNA [2, 6]: 943 ng·h/mL; Cmax of 1-MNA [2, 6]: 54.9 ng/mL; Tmax of 1-MNA [2, 6]: 24.0 h; AUClast of 1-MNA ([2]; 50 mg/kg of 11, formulation a): 653 ng·h/mL; Cmax of 1-MNA ([2]; 50 mg/kg of 11, formulation a): 54.8 ng/mL; Tmax of 1-MNA ([2]; 50 mg/kg of 11, formulation a): 24.0 h; AUClast of 1-MNA ([2]; 50 mg/kg of 11, formulation b): 667 ng·h/mL; Cmax of 1-MNA ([2]; 50 mg/kg of 11, formulation b): 70.1 ng/mL; Tmax of 1-MNA ([2]; 50 mg/kg of 11, formulation b): 8.17 h; AUClast/D ([3]; 1 mg/kg IV): 464 kg·ng·h/mL/mg; AUC—%Extrap—obs ([3]; 1 mg/kg IV): 0.574%; Cl_obs ([3]; 1 mg/kg IV): 36.1 mL/min/kg; AUClast/D ([3]; 10 mg/kg PO, formulation a): 58.2 kg·ng·h/mL/mg; AUC—%Extrap—obs ([3]; 10 mg/kg PO, formulation a): 1.90%; F_last ([3]; 10 mg/kg PO, formulation a): 12.7%; T1/2 ([3]; 10 mg/kg PO): 1.309 h; AUClast/D ([3]; 50 mg/kg PO, formulation a): 1020 kg·ng·h/mL/mg; AUC—%Extrap—obs ([3]; 50 mg/kg PO, formulation a): 0.258%; Cmax ([3]; 50 mg/kg PO, formulation a): 22500 ng/mL; T1/2 ([3]; 50 mg/kg PO): 2.89 h; AUClast/D ([3]; 50 mg/kg PO, formulation b): 865 kg·ng·h/mL/mg; AUC—%Extrap—obs ([3]; 50 mg/kg PO, formulation b): 7.8%; AUC(0-inf) [3, 7]: 467 ng·h/mL; AUC(0-t) [3, 7]: 464 ng·h/mL; MRT inf [3, 7]: 0.427 h; AUC(0-inf) [3, 8]: 593 ng·h/mL; AUC(0-t) [3, 8]: 582 ng·h/mL; MRT inf [3, 8]: 2.21 h; AUC(0-inf) [3, 9]: 51300 ng·h/mL; AUC(0-t) [3, 9]: 51100 ng·h/mL; MRT inf [3, 9]: 2.5 h; AUC(0-inf) [3, 10]: 46700 ng·h/mL; AUC(0-t) [3, 10]: 43200 ng·h/mL; MRT inf [3, 10]: 3.97 h; AUC(0-t) [3, 11]: 116000 ng·h/mL; Tmax [3, 11]: 0.25 h; half-life [3, 11]: 3.43 h; Cmax ([3]; female, C57B16/N, mouse, plasma, po, title: single 100 mg/kg dosage, 50 mg/kg^b, formulation b, read-out: Cmax): 43200 ng/mL; C0 [3, 12]: 2620 ng/mL; half-life [3, 12]: 0.148 h; Tmax ([3]; female, C57B16/N, mouse, plasma, 10 mg/kg PO, formulation a): 0.5 h; Cmax ([3]; female, C57B16/N, mouse, plasma, 10 mg/kg PO, formulation a, read-out: Cmax): 412 ng/mL; Tmax ([3]; female, C57B16/N, mouse, plasma, 50 mg/kg PO, formulation a): 0.25 h; half-life ([3]; female, C57B16/N, mouse, plasma, 50 mg/kg PO, formulation b (0.2% Tween 80, 20% PEG300)): 4.1 h; Cmax ([3]; female, C57B16/N, mouse, plasma, 50 mg/kg PO, formulation b, read-out: Cmax): 19000 ng/mL; Off-target activity [4]: did not show significant off-target activity; Remaining (%) at 60 minutes ([5]; Human liver microsomes): 97.33%; CLint scaled at 2 μM ([5]; human, microsomes): < 6.79 mL/min/kg; half-life at 2 μM ([5]; human, microsomes): > 4.26 h; microsomal CLint at 2 μM ([5]; human, microsomes): < 5.42 µL/min/mg
